From patent US8207342B2, “Substituted 3-amino-2-mercaptoquinolines as KCNQ2/3 modulators” (Gruenenthal GmbH, priority 2009, dated 2012)

How the values were obtained:
KCNQ2/3 channels = target: T1, KCNQ2/3 channels (Homo sapiens, UniProt O43525+O43526); test: Fluorescence assay using a voltage sensitive dye (fluorimetry); type: cell-based; conditions: CHO-K1 cells expressing KCNQ2/3 channels; for EC50: agonistic activity; for Emax: relative to retigabine = 100%, read-out: Fluorimetry % efficacy (retigabine = 100%)
T1 construct: expressed in transfected cells
Procedure: Fluorescence Assay using a Voltage Sensitive Dye
Human CHO—K1 cells expressing KCNQ2/3 channels are cultivated adherently at 37° C., 5% CO2 and 95% humidity in cell culture bottles (e.g. 80 cm^2 TC flasks, Nunc) with DMEM-high glucose (Sigma Aldrich, D7777) including 10% FCS (PAN Biotech, e.g. 3302-P270521) or alternatively MEM Alpha Medium (1×, liquid, Invitrogen, #22571), 10% fetal calf serum (FCS) (Invitrogen, #10270-106, heat-inactivated) and the necessary selection antibiotics.
Before being sown out for the measurements, the cells are washed with a 1×DPBS buffer without Ca^2+/Mg^2+ (e.g. Invitrogen, #14190-094) and detached from the bottom of the culture vessel by means of Accutase (PAA Laboratories, #L11-007) (incubation with Accutase for 15 min at 37° C.). The cell count then present is determined using a CASY™ cell counter (TCC model, Schärfe System) in order subsequently to apply, depending on the density optimization for the individual cell line, 20,000-30,000 cells/well/100 μl of the described nutrient medium to 96-well measuring plates of the Corning™ CellBIND™ type (Flat Clear Bottom Black Polystyrene Microplates, #3340). Incubation is then carried out for one hour at room temperature, without gassing or adjusting the humidity, followed by incubation for 24 hours at 37° C., 5% CO2 and 95% humidity.
The voltage-sensitive fluorescent dye from the Membrane Potential Assay Kit (Red™ Bulk format part R8123 for FLIPR, MDS Analytical Technologies™) is prepared by dissolving the contents of a vessel Membrane Potential Assay Kit Red Component A in 200 ml of extracellular buffer (ES buffer, 120 mM NaCl, 1 mM KCl, 10 mM HEPES, 2 mM CaCl2, 2 mM MgCl2, 10 mM glucose; pH 7.4). After removal of the nutrient medium, the cells are washed with 200 μl of ES buffer, then covered with a layer of 100 μl of the dye solution prepared above and incubated for 45 min at room temperature with the exclusion of light.
The fluorescence measurements are carried out with a BMG Labtech FLUOstar™, BMG Labtech NOVOstar™ or BMG Labtech POLARstar™ instrument (525 nm excitation, 560 nm emission, Bottom Read mode). After incubation of the dye, 50 μl of the test substances in the desired concentrations, or 50 μl of ES buffer for control purposes, are introduced into separate cavities of the measuring plate and incubated for 30 min at room temperature while being shielded from light. The fluorescence intensity of the dye is then measured for 5 min and the fluorescence value F1 of each well is thus determined at a given, constant time. 15 μl of a […] KCl solution ([…]) are then added to each well. The change in fluorescence is subsequently measured until all the relevant measured values have been obtained (mainly 5-30 min). At a given time after KCl application, a fluorescence value F2 is determined, in this case at the time of the fluorescence peak.
For calculation, the fluorescence intensity F2 is compared with the fluorescence intensity F1, and the agonistic activity of the target compound on the potassium channel is determined therefrom. F2 and F1 are calculated as follows: […]
In order to determine whether a substance has agonistic activity,
A substance has an agonistic activity on the potassium channel when
[formula] it is possible to conclude that a target compound has agonistic activity if an increase in
Calculations of EC50 values are carried out with the aid of ‘Prism v4.0’ software (GraphPad Software™).

[1] = tested on: formalin-induced pain behaviour; test: Formalin test, mouse (phase 2, chronic pain component); type: in vivo; conditions: change in percent compared with vehicle control
Procedure: Formalin Test, Mouse The formalin test (Dubuisson, D. and Dennis, S. G., 1977, Pain, 4, 161-174) represents a model for both acute and chronic pain. By means of a single formalin injection into the dorsal side of a rear paw, a biphasic nociceptive reaction is induced in freely mobile test animals; the reaction is detected by observing three behaviour patterns which are clearly distinguishable from one another. The reaction is two-phase: phase 1=immediate reaction (duration up to 10 min; shaking of the paw, licking), phase 2=late reaction (after a rest phase; likewise shaking of the paw, licking; duration up to 60 min). The 1st phase reflects a direct stimulation of the peripheral nocisensors with high spinal nociceptive input (acute pain phase); the 2nd phase reflects a spinal and peripheral hypersensitization (chronic pain phase). In the studies described here, the chronic pain component (phase 2) has been evaluated. Formalin in a volume of 20 μl and a concentration of 1% is administered subcutaneously into the dorsal side of the right rear paw of each animal. The specific changes in behaviour, such as lifting, shaking or licking of the paw (score 3, Dubuisson & Dennis, 1977), are observed and recorded in the observation period of 21 to 24 minutes following the formalin injection. The behaviour of the animals after administration of the substance (n=10 per dose of substance) was compared with a control group which received vehicle (n=10). On the basis of the quantification of the pain behaviour, the action of the substance in the formalin test was determined as the change in percent compared with the control. The ED50 calculations (ED50=mean effective dose) were carried out by means of regression analysis according to the method of Litchfield and Wilcoxon (Litchfield, J. T., Wilcoxon, J. J., 1949, J. Pharmacol. Exp. Ther. 96, 99—113). The time of administration of the compound before the formalin injection was chosen as 5 min in the case of intravenous administration and 30 min in the case of oral administration.

| SMILES | EC50 (KCNQ2/3 channels) [nM] | Emax (KCNQ2/3 channels) [%] | Formalin Test mouse IV effect @ dose [mg/kg] ([1]; 1 mg/kg) [% @ 1] | Formalin Test mouse IV effect @ dose [mg/kg] ([1]; 0.68 mg/kg) [% @ 0.68] |
| --- | --- | --- | --- | --- |
| O=C(CC1CCCCC1)Nc1cc2ccccc2nc1SCCS(=O)(=O)c1ccccc1 [Example 1, 2-cyclohexyl-N-(2-(2-(phenylsulfonyl)ethylthio)quinolin-3-yl)acetamide] | 253 | 80 |  |  |
| O=C(Cc1cccs1)Nc1cc2ccccc2nc1SCCS(=O)(=O)c1ccccc1 [Example 2, N-(2-(2-(phenylsulfonyl)ethylthio)quinolin-3-yl)-2-(thiophen-2-yl)acetamide] | 67 | 80 |  |  |
| O=C(CCC1CCCCC1)Nc1cc2ccccc2nc1SCCS(=O)(=O)c1ccccc1 [Example 3, 3-Cyclohexyl-N-(2-(2-(phenylsulfonyl)ethylthio)quinolin-3-yl)propanamide] | 174 | 97 |  |  |
| CCCCCSc1nc2ccccc2cc1NC(=O)Cc1cccs1 [Example 4, N-(2-(pentylthio)quinolin-3-yl)-2-(thiophen-2-yl)acetamide] | 107 | 60 |  |  |
| O=C(Cc1cccs1)Nc1cc2ccccc2nc1SCCSc1ccccc1 [Example 6, N-(2-(2-(phenylthio)ethylthio)quinolin-3-yl)-2-(thiophen-2-yl)acetamide] |  | 25 |  |  |
| CCSc1nc2ccccc2cc1NC(=O)Cc1cccs1 [Example 7, N-(2-(ethylthio)quinolin-3-yl)-2-(thiophen-2-yl)acetamide] | 156 | 93 | 24 |  |
| CCSc1nc2ccccc2cc1NC(=O)CC(C)(C)C [Example 9, N-(2-(ethylthio)quinolin-3-yl)-3,3-dimethylbutanamide] | 414 | 142 |  |  |
| CCSc1nc2cc(C(F)(F)F)ccc2cc1NC(=O)Cc1cccs1 [Example 10, N-[2-Ethylsulfanyl-7-(trifluoromethyl)quinolin-3-yl]-2-thiophen-2-yl-acetamide] | 1150 | 57 |  |  |
| CCSc1nc2cc(C(F)(F)F)ccc2cc1NC(=O)CC(C)(C)C [Example 11, N-[2-ethylsulfanyl-7-(trifluoromethyl)-quinolin-3-yl]-3,3-dimethyl-butyramide] |  | 35 |  |  |
| CCSc1nc2cc(C(F)(F)F)ccc2cc1NC(=O)CCC1CCCC1 [Example 12, 3-cyclopentyl-N-[2-ethylsulfanyl-7-(trifluoromethyl)-quinolin-3-yl]propionamide] | 5020 | 62 |  |  |

Second part, led by results:

| EC50 (KCNQ2/3 channels) [nM] | Emax (KCNQ2/3 channels) [%] | SMILES | Formalin Test mouse IV effect @ dose [mg/kg] ([1]; 1 mg/kg) [% @ 1] | Formalin Test mouse IV effect @ dose [mg/kg] ([1]; 0.68 mg/kg) [% @ 0.68] |
| --- | --- | --- | --- | --- |
| 150 | 101 | CCSc1nc2ccccc2cc1NC(=O)CC1CCCCC1 [Example 13, 2-Cyclohexyl-N-(2-ethylsulfanyl-quinolin-3-yl)-acetamide] |  |  |
| 204 | 179 | CCSc1nc2ccccc2cc1NC(=O)CC1CC2CCC1C2 (stereo not shown) [Example 14, 2-(5-bicyclo[2.2.1]heptanyl)-N-(2-ethylsulfanyl-quinolin-3-yl)-acetamide] |  |  |
| 82 | 143 | CCSc1nc2ccccc2cc1NC(=O)CCC1CCCC1 [Example 15, 3-cyclopentyl-N-(2-ethylsulfanyl-quinolin-3-yl)-propionamide] | 17 |  |
| 647 | 66 | CCSc1nc2cc(C(F)(F)F)ccc2cc1NC(=O)CC1CC2CCC1C2 (stereo not shown) [Example 16, 2-(5-bicyclo[2.2.1]heptanyl)-N-[2-ethylsulfanyl-7-(trifluoromethyl)-quinolin-3-yl]-acetamide] |  |  |
| 66 | 107 | CCSc1nc2cc(C(F)(F)F)ccc2c(C)c1NC(=O)CCC1CCCC1 [Example 17, 3-cyclopentyl-N-[2-ethylsulfanyl-4-methyl-7-(trifluoromethyl)-quinolin-3-yl]-propionamide] |  | 90 |
| 94 | 140 | CCSc1nc2cc(C(F)(F)F)ccc2c(C)c1NC(=O)Cc1cccs1 [Example 18, N-[2-ethylsulfanyl-4-methyl-7-(trifluoromethyl)-quinolin-3-yl]-2-thiophen-2-yl-acetamide] | 43 |  |
